Patent US8952024B2, “Herbicidal pyrimidone derivatives” (E I du Pont de Nemours and Company, priority 2009, dated 2015)

Key:
Assay type in all cases: in vivo
[1] = system: ducksalad (Heteranthera limosa); assay: Test B flooded paddy test; details: for Plant response rating, Flood, Ducksalad: 250 g ai/ha, flooded paddy test, visual rating on 0 to 100 scale (0 no effect, 100 complete control) after 13 to 15 days; for Plant response rating, Ducksalad: Flood (flooded paddy test), 13 to 15 days; for Ducksalad plant response rating: Flood, scale 0 to 100 (0 no effect, 100 complete control)
How it was run: (§1)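 Each compound is added to standing floodwater (3 cm above soil, maintained) in pots of 2-leaf-stage plants; greenhouse exposure lasts 13–15 d before visual comparison with controls on a 0–100 control scale.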

[2] = system: barnyardgrass (Echinochloa crus-galli); assay: Test B flooded paddy test; details: for Plant response rating, Flood, Barnyardgrass: 250 g ai/ha, flooded paddy test, visual rating on 0 to 100 scale (0 no effect, 100 complete control) after 13 to 15 days; for Plant response rating, Barnyardgrass: Flood (flooded paddy test), 13 to 15 days; for Barnyardgrass plant response rating: Flood, scale 0 to 100 (0 no effect, 100 complete control)
How it was run: as §1

[3] = system: galium (catchweed bedstraw, Galium aparine); assay: Test B pre-/postemergence plant response
How it was run: (§2)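 Steps: sow seed in loam–sand soil and spray preemergence, or grow plants in peat-based medium to 1–4 leaves (2–18 cm) and spray postemergence; formulation is non-phytotoxic solvent plus surfactant; hold in greenhouse 13–15 days; score visually vs controls, 0 = no effect, 100 = complete control.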

[4] = system: sunflower (common oilseed sunflower, Helianthus annuus); assay: Test B pre-/postemergence plant response; details: Preemergence; for Sunflower plant response rating: 250 g ai/ha, 0 to 100 scale
How it was run: as §2

[5] = system: nightshade (eastern black nightshade, Solanum ptycanthum); assay: Test B pre-/postemergence plant response; details: Preemergence; for Nightshade plant response rating: 250 g ai/ha, 0 to 100 scale
How it was run: as §2

[6] = system: Russian thistle (Salsola kali); assay: Test B pre-/postemergence plant response; details: Preemergence; for Russian Thistle plant response rating: 250 g ai/ha, 0 to 100 scale
How it was run: as §2

[7] = system: deadnettle (henbit deadnettle, Lamium amplexicaule); assay: Test B pre-/postemergence plant response; details: Postemergence
How it was run: as §2

[8] = 31 g ai/ha, scale of 0 to 100 where 0 is no effect and 100 is complete control
[9] = 62 g ai/ha, scale of 0 to 100 where 0 is no effect and 100 is complete control
[10] = 125 g ai/ha, scale 0 to 100, 0 is no effect, 100 is complete control
[11] = 250 g ai/ha, Preemergence, 0 to 100 scale
[12] = Preemergence, 31 g ai/ha, scale 0 to 100 (0 no effect, 100 complete control)
[13] = Preemergence, 62 g ai/ha, scale 0 to 100 (0 no effect, 100 complete control)
[14] = Preemergence, 125 g ai/ha, scale 0 to 100, 0 no effect, 100 complete control
[15] = 31 g ai/ha, scale 0 to 100 (0 no effect, 100 complete control)
[16] = 62 g ai/ha, scale 0 to 100 (0 no effect, 100 complete control)
[17] = 125 g ai/ha, scale 0 to 100, 0 no effect, 100 complete control
[18] = Preemergence, 250 g ai/ha, 0 to 100 scale
[19] = Postemergence, 31 g ai/ha, 0 to 100 scale (0 no effect, 100 complete control)
[20] = Postemergence, 125 g ai/ha, scale 0 to 100 (0 no effect, 100 complete control)
[21] = Postemergence, 250 g ai/ha, scale 0 to 100 (0 no effect, 100 complete control), 13 to 15 days
[22] = 31 g ai/ha, 0 to 100 scale (0 no effect, 100 complete control)
[23] = 125 g ai/ha, scale 0 to 100 (0 no effect, 100 complete control)
[24] = 250 g ai/ha, scale 0 to 100 (0 no effect, 100 complete control), 13 to 15 days
[25] = Postemergence, 62 g ai/ha, scale 0 to 100 (0 no effect, 100 complete control)

Row | Structure (SMILES) | Plant response rating, Flood, Ducksalad [1] | Plant response rating, Ducksalad [1, 9] | Plant response rating, Ducksalad [1, 10] | Plant response rating, Flood, Barnyardgrass [2] | Plant response rating, Barnyardgrass [2, 9] | Plant response rating, Barnyardgrass [2, 10] | Plant response rating, Galium [3, 13] | Plant response rating, Galium [3, 14] | Plant response rating, Sunflower [4, 15] | Plant response rating, Sunflower [4, 16] | Plant response rating, Sunflower [4, 17] | Plant response rating, Nightshade [5, 15] | Plant response rating, Nightshade [5, 16] | Plant response rating, Nightshade [5, 17] | Ducksalad plant response rating ([1]; 31 g ai/ha) | Barnyardgrass plant response rating ([2]; 31 g ai/ha) | Plant response rating, Galium [3, 19] | Plant response rating, Galium [3, 21] | Plant response rating, Deadnettle [7, 22] | Plant response rating, Deadnettle [7, 24] | other results
1 | O=C1CCCC(O)=C1C(=O)c1cnc(-c2cccc(Cl)c2)n(-c2ccc(Cl)cc2)c1=O [Compound 64] | 60 | 30 | 50 | 0 | 0 | 0 | 0 | 30 | 0 | 0 | 0 | 55 | 85 | 95 |  |  |  |  |  |  | Plant response rating, Ducksalad [1, 8]: 30; Plant response rating, Barnyardgrass [2, 8]: 0; Plant response rating, Galium [3, 11]: 70; Plant response rating, Galium [3, 12]: 0; Plant response rating, Russian Thistle [6, 16]: 0
2 | CCCCc1ncc(C(=O)C2=C(O)CCCC2=O)c(=O)n1-c1ccc(C)cc1 [Compound 67] | 0 | 0 | 0 | 0 | 0 | 0 | 35 | 85 | 0 | 20 | 35 | 70 | 95 | 95 | 0 | 0 |  |  |  |  | Plant response rating, Galium [3, 11]: 90; Plant response rating, Galium [3, 12]: 0; Plant response rating, Russian Thistle [6, 15]: 85
3 | CCCc1ncc(C(=O)C2=C(O)CCCC2=O)c(=O)n1-c1ccccc1C [Compound 73] | 0 | 0 |  | 0 | 0 |  | 30 | 80 | 0 | 20 | 70 | 75 | 95 | 98 |  |  |  |  |  |  | Plant response rating, Galium [3, 11]: 85; Plant response rating, Russian Thistle [6, 15]: 0
4 | CCCc1ncc(C(=O)C2=C(O)CCCC2=O)c(=O)n1CC1CCCO1 (centres unmarked) [Compound 74] | 0 | 0 |  | 40 | 0 |  | 30 | 40 | 0 | 55 | 70 | 85 | 98 | 98 |  |  |  |  |  |  | Plant response rating, Galium [3, 12]: 20; Galium plant response rating [3, 18]: 98; Sunflower plant response rating [4]: 85; Nightshade plant response rating [5]: 100; Plant response rating, Russian Thistle [6, 15]: 0; Plant response rating, Russian Thistle [6, 16]: 80; Plant response rating, Russian Thistle [6, 17]: 90; Russian Thistle plant response rating [6]: 98
5 | COCCn1c(-c2cc(F)cc(F)c2)ncc(C(=O)C2=C(O)CCCC2=O)c1=O [Compound 119] | 70 | 30 |  | 50 | 30 |  | 85 | 90 | 40 | 60 | 70 | 90 | 98 | 98 |  |  |  |  |  |  | Plant response rating, Galium [3, 12]: 65; Galium plant response rating [3, 18]: 100; Sunflower plant response rating [4]: 85; Nightshade plant response rating [5]: 100; Plant response rating, Russian Thistle [6, 15]: 100; Plant response rating, Russian Thistle [6, 16]: 100; Plant response rating, Russian Thistle [6, 17]: 100; Russian Thistle plant response rating [6]: 100
6 | Cc1ccc(Cl)cc1-n1c(-c2cccc(F)c2)ncc(C(=O)C2=C(O)CCCC2=O)c1=O [Compound 184] | 100 | 100 | 100 | 25 | 0 | 20 |  |  |  |  |  |  |  |  | 95 | 0 | 50 | 60 | 100 | 100 | Plant response rating, Galium [3, 20]: 60; Plant response rating, Deadnettle [7, 23]: 100
7 | O=C1CCCC(O)=C1C(=O)c1cnc(-c2cccc(F)c2)n(C2CCCCC2)c1=O [Compound 187] | 100 | 95 |  | 80 | 45 |  |  |  |  |  |  |  |  |  |  |  | 20 | 85 | 80 | 100 | Plant response rating, Galium [3, 20]: 55
8 | O=C1CCCC(O)=C1C(=O)c1cnc(-c2cccs2)n(C2CCCCC2)c1=O [Compound 189] | 100 | 100 |  | 70 | 30 |  |  |  |  |  |  |  |  |  |  |  | 20 | 85 | 85 | 100 | Plant response rating, Galium [3, 20]: 85; Plant response rating, Deadnettle [7, 23]: 100
9 | CCCn1c(-c2cccc(Cl)c2)ncc(C(=O)C2=C(O)CCCC2=O)c1=O [Compound 190] | 100 | 20 | 40 | 30 | 0 | 20 |  |  |  |  |  |  |  |  | 20 | 0 | 50 | 85 | 65 | 100 | Plant response rating, Galium [3, 20]: 60; Plant response rating, Deadnettle [7, 23]: 100
10 | Cc1cc(-n2c(-c3cccc(F)c3)ncc(C(=O)C3=C(O)CCCC3=O)c2=O)ccc1F [Compound 191] | 100 | 85 | 75 | 25 | 0 | 0 |  |  |  |  |  |  |  |  | 65 | 0 | 20 | 60 | 90 | 100 | Plant response rating, Galium [3, 25]: 40; Plant response rating, Galium [3, 20]: 60; Plant response rating, Deadnettle [7, 16]: 100; Plant response rating, Deadnettle [7, 23]: 100
11 | O=C1CCCC(O)=C1C(=O)c1cnc(-c2ccc(F)cc2)n(C2CCCCC2)c1=O [Compound 197] | 85 | 65 | 80 | 30 | 0 | 20 |  |  |  |  |  |  |  |  | 65 | 0 | 75 | 80 | 100 | 100 | Plant response rating, Galium [3, 25]: 75; Plant response rating, Deadnettle [7, 16]: 100; Plant response rating, Deadnettle [7, 23]: 100
